According to US11207312B2, “Metallo-beta-lactamase inhibitors and methods of use thereof” (priority 2017, dated 2021):

Experiments:
[1] = biological target: VIM-1 (Pseudomonas aeruginosa (strain ATCC 15692 / DSM 22644 / CIP 104116 / JCM 14847 / LMG 12228 / 1C / PRS 101 / PAO1), UniProt A0A0F7KYQ8); experiment: biochemical; settings: CCF2-FA fluorescence assay, 2 hours at 25° C.; read-out: VIM1 IC50
Method in brief: (§1)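 IC50s come from 4-parameter fits of inhibition versus inhibitor concentration, tested from 20 μM down to 0.00063 μM. Enzyme, CCF2-FA (1.25 μM) and inhibitor react 2 h at 25° C, pH 7, with 10 μM ZnSO4 and 0.005% Tween-20.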

[2] = biological target: IMP-1 (Serratia marcescens, UniProt P52699); experiment: biochemical; settings: CCF2-FA fluorescence assay, 2 hours at 25° C.; read-out: IMP1 IC50
IMP-1, sequence (P52699 whole entry, looked up, species assumed): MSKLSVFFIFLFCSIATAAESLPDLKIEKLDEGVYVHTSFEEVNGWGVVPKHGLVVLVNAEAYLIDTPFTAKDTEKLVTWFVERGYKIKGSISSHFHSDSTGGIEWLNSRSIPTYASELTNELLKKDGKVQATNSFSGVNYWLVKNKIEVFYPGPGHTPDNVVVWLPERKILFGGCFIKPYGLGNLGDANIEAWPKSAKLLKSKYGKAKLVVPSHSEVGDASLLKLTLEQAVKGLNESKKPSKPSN
Method in brief: as §1

[3] = system: P. aeruginosa MB9798 (efflux+, IMP-1 plasmid); settings: for MB9798 MITC95 P. aeruginosa uM Efflux WT: efflux + (MB9798) strain, imipenem at 2 μg/mL, in the presence of a class A, C, D serine β-lactamase inhibitor closely related to relebactam; for Efflux ratio: fold difference between efflux+ (MB9798) and efflux− (MB9799) strains
Method in brief: (§2)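 Isogenic P. aeruginosa PAO1 strains (efflux+ and multiple-efflux-pump-disrupted) carrying plasmid IMP-1, with inducible AmpC, tested by broth microdilution. Imipenem and/or ceftazidime fixed, usually at CLSI breakpoint, plus fixed class A/C β-lactamase inhibitor; titrated MBL inhibitor concentration restoring susceptibility recorded and compared between strains as efflux fold difference.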

[4] = biological target: VIM-2 (Escherichia coli, UniProt Q5U7L7); experiment: biochemical; settings: CCF2-FA fluorescence assay; read-out: VIM2 IC50
[5] = biological target: NDM-1 (Klebsiella pneumoniae, UniProt C7C422); experiment: biochemical; type: biochemical; settings: CCF2-FA fluorescence assay, 2 hours at 25° C.
NDM-1, sequence (C7C422 whole entry, looked up, species assumed): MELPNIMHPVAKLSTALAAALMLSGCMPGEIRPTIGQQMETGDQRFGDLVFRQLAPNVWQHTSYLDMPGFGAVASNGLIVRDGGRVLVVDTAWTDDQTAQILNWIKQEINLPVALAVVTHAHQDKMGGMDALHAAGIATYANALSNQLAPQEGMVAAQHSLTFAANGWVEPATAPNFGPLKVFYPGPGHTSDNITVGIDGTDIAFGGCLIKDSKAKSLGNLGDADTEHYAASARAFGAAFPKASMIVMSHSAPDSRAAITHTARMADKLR
Method in brief: as §1

[6] = system: Serratia marcescens expressing IMP-1 (CL5741); type: cell-based; settings: with imipenem 1 μg/ml; 95% inhibition of bacterial growth
Method in brief: (§3)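 Clinical MBL-producing strains were grown overnight at 35 °C on blood agar, suspended in saline, diluted 1:100 into 1.1× CAMHB and exposed to test compound with imipenem at 1 μg/ml. After 22–24 h at 35 °C, absorbance gave MITC95: lowest compound concentration inhibiting 95% of growth.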

[7] = system: Klebsiella pneumoniae expressing VIM-1 (IHMA599644); type: cell-based; settings: with imipenem 1 μg/ml; 95% inhibition of bacterial growth
Method in brief: as §3

[8] = system: Escherichia coli expressing NDM-1 (CLB30016); type: cell-based; settings: with imipenem 1 μg/ml; 95% inhibition of bacterial growth
Method in brief: as §3

[9] = system: P. aeruginosa MB9799 (efflux-, IMP-1 plasmid); type: cell-based, Pseudomonas aeruginosa; settings: efflux − (MB9799) strain; imipenem at 2 μg/mL; in the presence of a class A, C, D serine β-lactamase inhibitor closely related to relebactam
Method in brief: as §2

Compound	IC50 [1]	IC50 [2]	MB9798 MITC95 P. aeruginosa uM Efflux WT [3]	Efflux ratio [3]	IC50 [4]	IC50 [5]	CL5741 S. marcescens MITC95 IMP [6]	IHMA599644 K. pneumoniae MITC95 VIM [7]	CLB30016 E. coli MITC95 NDM [8]	MB9799 MITC95 P. aeruginosa uM Efflux Mutant [9]
NS(=O)(=O)c1c(S(=O)(=O)N[C@@H]2CCNC2)ccc(N2CCCC(O)C2=O)c1-c1nn[nH]n1 (stereo partly drawn) [Example 148, 4-(3-hydroxy-2-oxopiperidin-1-yl)-N1-((R)-pyrrolidin-3-yl)-3-(2H-tetrazol-5-yl)benzene-1,2-disulfonamide]	0.35 nM	28.1 nM	3.13 µM	2.00	1.5 nM	0.76 nM	1.56 µM	3.13 µM	0.39 µM	1.56 µM
NCC1CCN(c2ccc(S(=O)(=O)N[C@@H]3CCNC3)c(S(N)(=O)=O)c2-c2nn[nH]n2)C(=O)C1 (some centres unmarked) [Example 149]	0.96 nM	104 nM	6.25 µM	2.00	48.1 nM	4.46 nM	1.56 µM	1.56 µM	0.20 µM	3.13 µM
NOC1CCCN(c2ccc(S(=O)(=O)N[C@@H]3CCNC3)c(S(N)(=O)=O)c2-c2nn[nH]n2)C1=O (some centres unmarked) [Example 150]	0.38 nM	17.1 nM	12.50 µM	4.00	1.52 nM	0.62 nM	6.25 µM	12.50 µM	1.56 µM	3.13 µM
NS(=O)(=O)c1c(S(=O)(=O)N[C@@H]2CCNC2)ccc(N2CCCC(=O)C2=O)c1-c1nn[nH]n1 [Example 151, (R)-4-(2,3-dioxopiperidin-1-yl)-N1-(pyrrolidin-3-yl)-3-(2H-tetrazol-5-yl) benzene-1,2-disulfonamide]	1.15 nM	6.7 nM	12.50 µM	4.00	5.92 nM	0.53 nM	1.56 µM	6.25 µM	0.39 µM	3.13 µM
NS(=O)(=O)c1c(S(=O)(=O)N[C@@H]2CCNC2)ccc(N2CCCC(=NO)C2=O)c1-c1nn[nH]n1 [Example 152, (R)-4-(3-(hydroxyimino)-2-oxopiperidin-1-yl)-N1-(pyrrolidin-3-yl)-3-(2H-tetrazol-5-yl)benzene-1,2-disulfonamide]	0.16 nM	6.8 nM	3.13 µM	2.00	0.74 nM	0.08 nM	1.56 µM	3.13 µM	0.39 µM	1.56 µM
NS(=O)(=O)c1c(S(=O)(=O)N[C@@H]2CCNC2)ccc(N2CCCNC2=O)c1-c1nn[nH]n1 [Example 153, (R)-4-(2-oxotetrahydropyrimidin-1(2H)-yl)-N1-(pyrrolidin-3-yl)-3-(2H-tetrazol-5-yl)benzene-1,2-disulfonamide]	0.2 nM	7.23 nM	3.13 µM	2.00	1.1 nM	0.21 nM	1.56 µM	3.13 µM	0.78 µM	1.56 µM
NS(=O)(=O)c1c(S(=O)(=O)N[C@@H]2CCNC2)ccc(N2CCCCC2=O)c1-c1nn[nH]n1 [Example 154, (R)-4-(2-oxopiperidin-1-yl)-N1-(pyrrolidin-3-yl)-3-(2H-tetrazol-5-yl)benzene-1,2-disulfonamide]	0.26 nM	8.46 nM	3.13 µM	2.00	0.73 nM	0.35 nM	1.56 µM	6.25 µM	1.56 µM	1.56 µM
N[C@@H]1CCCN(c2ccc(S(=O)(=O)N[C@@H]3CCNC3)c(S(N)(=O)=O)c2-c2nn[nH]n2)C1=O [Example 155]	2.14 nM	81.4 nM	6.25 µM	2.00	6.87 nM	5.12 nM	3.13 µM	1.56 µM	0.39 µM	3.13 µM
N[C@H]1CCCN(c2ccc(S(=O)(=O)N[C@@H]3CCNC3)c(S(N)(=O)=O)c2-c2nn[nH]n2)C1=O [Example 156, 4-((S)-3-amino-2-oxopiperidin-1-yl)-N1-((R)-pyrrolidin-3-yl)-3-(2H-tetrazol-5-yl)benzene-1,2-disulfonamide]	2.14 nM	67.7 nM	12.50 µM	8.00	7.16 nM	4.64 nM	1.56 µM	1.56 µM	0.39 µM	1.56 µM
NS(=O)(=O)c1c(S(=O)(=O)N[C@@H]2CCNC2)ccc(N2CCC(CO)CC2=O)c1-c1nn[nH]n1 (stereo partly drawn) [Example 157, 4-(4-(hydroxymethyl)-2-oxopiperidin-1-yl)-N1-((R)-pyrrolidin-3-yl)-3-(2H-tetrazol-5-yl)benzene-1,2-disulfonamide]	0.25 nM	6.9 nM	3.13 µM	1.00	1.85 nM	0.24 nM	3.13 µM	6.25 µM	1.56 µM	3.13 µM
NC1CCN(c2ccc(S(=O)(=O)N[C@@H]3CCNC3)c(S(N)(=O)=O)c2-c2nn[nH]n2)C(=O)C1 (stereo partly drawn) [Example 158, 4-(4-amino-2-oxopiperidin-1-yl)-N1-((R)-pyrrolidin-3-yl)-3-(2H-tetrazol-5-yl)benzene-1,2-disulfonamide]	1.22 nM	88.4 nM	6.25 µM	2.00	22.8 nM	7.19 nM	1.56 µM	0.78 µM	0.10 µM	3.13 µM
